Measurements: patent US4414388A, “1-Oxo-1H-thiazolo[3,2-a]pyrimidine-2-carboxamides” (Pfizer Inc., priority 1981, dated 1983)

Key:
IgE = experiment: passive cutaneous anaphylaxis (PCA) test, oral, IgE (reaginic antiserum) site; type: in vivo, rat; conditions: Table I, 1 mg./kg.
Procedure: The antiallergy property of the compounds of this invention is evaluated by the passive cutaneous anaphylaxis (PCA) test (Ovary, J. Immun., 81, 355, 1958). In the PCA test, normal animals are injected intradermally (i.d.) with antibodies contained in serum obtained from actively sensitized animals. The animals are then challenged intravenously with antigen mixed with a dye such as Evans' Blue. The increased capillary permeability caused by the antigen-antibody reaction causes the dye to leak from the site of the antibody injection. The test animals are then asphyxiated and the intensity of the reaction determined by measuring the diameter and intensity of the blue coloration on the inner surface of the animals' skin.
The PCA test is a measure of the anti-allergic (especially anti-asthmatic) activity of a compound. Compounds which inhibit a positive PCA test induced by the rat immunochemical counterpart of human immunoglobulin E (IgE), or reagin, are considered to have anti-allergic activity (C. Mota, Ann. N.Y. Acad. Sci., 103, 264 1963). (Reagin is primarily immunoglobulin E [IgE] and is the principal immunoglobulin responsible for allergic asthma, anaphylaxis, hay fever, food sensitivities and certain manifestations of drug sensitivities, although recent evidence ascribes to the IgG class of antibodies a significant role in the mediation of allergic diseases). Such compounds when administered to a sensitized subject, human or animal, prior to the time when the subject comes into contact with antigens or substances to which it is allergic, will prevent the allergic reaction which would otherwise occur. They, therefore, provide a method for the prophylactic treatment of allergy or anaphylactic reactions of a reagin mediated nature.
To put it another way, such compounds block the release of mediators resulting from the antigen-antibody (allergic) reaction as illustrated in the PCA test using rat homocytotropic antibody--a known correlate of human reaginic antibody. Inhibition of reaginic antigen-antibody reactions in rats, the test animal of the PCA test, is regarded as representative of inhibition of human reaginic antigen-antibody reactions which occur during allergic episodes.
The ability of agents to interfere with PCA reactions is measured in male Charles River Wistar rats, 170-210 g. Reaginic antiserum, rich in IgE antibodies, is prepared according to Petillo et al., Int. Arch. Allergy, 44, 309 (1973). Hyperimmune antiserum rich in IgG antibodies to hen egg albumin is prepared according to Orange et al., J. Exptl. Med., 127, 767 (1968). Forty-eight hours prior to antigen challenge, the reaginic antiserum is injected intradermally (i.d.) into the shaved skin of a normal rat's back; 5 hours before challenge the hyperimmune antisera is similarly injected. At a third site 60 mcg. histamine dihydrochloride and 0.5 mcg. serotonin creatinine sulfate are injected i.d. just prior to antigen challenge as a check for antihistaminic, antiserotonin and unspecific types of blockage; the compounds of the instant invention or saline are then administered i.v. and immediately followed by the challenge of 5 mg. egg albumen and 2.5 mg. Evans' Blue dye in saline. In the case of oral administration Evans' Blue dye and egg albumin are given 5 minutes after administration of the drug. Thirty minutes later the animals are asphyxiated using chloroform and the skin of the back removed and reversed for observation. A score is assigned each injection site equal to the product of the diameter of the site in mm. and a grade of 0.1, 0.5, 1, 2, 3 or 4 proportional to intensity of dye coloration. The scores for a given injection site are summed for each group of five animals and compared to the saline treated controls. The difference is expressed as percent blockage due to the compound employed. […]

[1] = tested on: isolated guinea pig ileum; experiment: spasms of isolated guinea pig ileum; conditions: 10^-8 to 10^-4 M
[2] = tested on: passive systemic anaphylaxis; experiment: passive systemic anaphylaxis (rise in plasma histamine on antigen challenge); type: in vivo, rat
glucose tolerance = experiment: glucose tolerance; type: in vivo, rat; conditions: 10, 30, or 100 mg/kg p.o. with glucose 1 g/kg p.o.
From the text: This effect may be due to a delayed absorption of glucose related to a possible effect on gastric emptying.

[3] = tested on: phenylbutazone gastric ulcer; experiment: phenylbutazone gastric ulcer model; type: in vivo; conditions: po
From the text: Miller et al., Gut 20, 75 (1979); Robert et al., Gastroenterology 72, 1121 (1977).] aptly characterizes the effects of compound III.

## O=C(Nc1nnn[nH]1)c1cnc2sc3c(n2c1=O)CCCC3 [compound III, N-(5-tetrazolyl)-1-oxo-1H-cyclohexenothiazolo[3,2-a]pyrimidine-2-carboxamide]
IgE
  Oral Activity (% of Protection) of Amides in the PCA Test, IgE 1 mg./kg.: 47%
[1]; acetylcholine
  antagonism of spasms of isolated guinea pig ileum induced with acetylcholine: does not antagonize spasms
[1]; histamine
  antagonism of spasms of isolated guinea pig ileum induced with histamine: does not antagonize spasms
[1]; slow reacting substance of anaphylaxis (SRS-A)
  antagonism of spasms of isolated guinea pig ileum induced with SRS-A: does not antagonize spasms
[2]; Rattus norvegicus, iv, rats passively sensitized with IgE-rich antiserum
  ED50: 0.028 mg/kg
[2]; rat, in vivo
  rise in plasma histamine caused by antigen challenge: prevented
Glucose tolerance
  effect on glucose tolerance: apparent dose-dependent improvement in glucose tolerance
[3]
  ED50: 0.2 mg/kg
